Results as given in article PMC8587043, “An Investigation into the Interaction between Double Hydroxide-Based Antioxidant Benzophenone Derivatives and Cyclooxygenase 2” (Molecules, 2021).

Columns and labels:
EA.hy926 cells [1] = assay: Cytotoxicity of compound SC2, MTT assay; format: cell-based, human
Procedure: The cytotoxicity of compound SC2 on EA.hy926 cells was detected by 3-(4,5-dimethyl-2-thiazolyl)-2,5-diphenyl-2-H-tetrazolium bromide (MTT) assay.
Compound SC2 stock solutions were prepared in DMSO. The stock solutions were diluted with FBS free DMEM to different target concentrations (DMSO concentrations ≤ 0.5% v:v). Cells (100 μL, 2 × 10^5 cells∙mL^−1) were seeded on 96-well plates and cultured for 24 h. The medium was then replaced with fresh media containing H2O2 with different concentrations (0, 100, 200, 300, 400, 500, and 600 μmol·L^−1 in FBS free DMEM) and compound SC2 (50, 40, 30, 20, 10 µmol·L^−1), which were transferred to the incubator and cultured for additional time (2, 4, and 6 h). The medium was then replaced with 100 μL of FBS free DMEM and MTT (10 μL, 5 mg·mL^−1 in PBS) and after 4 h the medium was replaced with DMSO (100 μL). A microplate reader (SpectraMaxPlus384, Molecular Devices, United States) was used to record the absorbance at 490 nm for each well of the plates. Cell viability was measured via MTT assay. Survival rate (%) = (Asample group/Acontrol group) × 100%.

COX2 = biological target: T1, COX2 (Homo sapiens, UniProt P35354); assay: Biolayer interferometry (BLI) binding to His-tagged COX2 on Ni-NTA sensors; settings: for Kd: BLI, one-to-one binding model, 4–6 point concentration series, read-out: KD (equilibrium dissociation constant); for COX2 binding in BLI: initial assay at 100 μM, binders re-assayed in concentration series
T1 construct: purchased Sino Biological Co. (Beijing, China)
T1 sequence (P35354 18-604): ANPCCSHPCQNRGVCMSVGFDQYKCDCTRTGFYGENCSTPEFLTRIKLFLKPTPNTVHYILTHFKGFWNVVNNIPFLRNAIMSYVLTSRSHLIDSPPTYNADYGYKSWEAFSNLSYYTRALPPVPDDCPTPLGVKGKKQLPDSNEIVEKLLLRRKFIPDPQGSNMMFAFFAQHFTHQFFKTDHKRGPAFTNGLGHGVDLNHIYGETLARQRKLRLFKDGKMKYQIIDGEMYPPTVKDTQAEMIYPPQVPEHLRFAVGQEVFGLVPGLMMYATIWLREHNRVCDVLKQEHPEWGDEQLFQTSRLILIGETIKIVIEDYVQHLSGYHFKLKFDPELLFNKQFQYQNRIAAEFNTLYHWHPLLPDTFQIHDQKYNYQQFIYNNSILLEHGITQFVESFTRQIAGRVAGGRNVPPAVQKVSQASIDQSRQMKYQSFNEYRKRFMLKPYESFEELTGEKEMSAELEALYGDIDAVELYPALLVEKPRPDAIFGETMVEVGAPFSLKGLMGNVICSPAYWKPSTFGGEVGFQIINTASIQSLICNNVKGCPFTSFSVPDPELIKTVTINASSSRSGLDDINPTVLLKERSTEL
From the text: The label-free real-time binding assay, BLI, was firstly performed to evaluate the potential COX2 binding activities of the twelve novel compounds. COX2 protein was captured onto the Ni-NTA sensors, by the virtue of its His-tag, followed by exposure to small-molecule compound. The binding of small-molecule compound to the biosensor increased the layer thickness of the sensor, resulting in an interference wavelength shift recorded by BLI. All 12 compounds were initially assayed at a single concentration of 100 μM (Figure 2a).
A significant shift in the association curve was observed upon addition of different concentrations of compounds DB2, SC2 and YB2 to COX2 in a concentration dependent manner (Figure 2b–d). During the dissociation step, it was also observed that the signal decreased to the baseline. That was a sign of a total protein-ligand dissociation, thus indicating the interaction was reversible. The real-time binding curves were generated fitting to a one-to-one binding model. The ratio of koff (dissociation) and kon (association) constants was equilibrium dissociation constants (KD).
His-tagged COX2 solution (40 μg∙mL^−1), which was prepared in phosphate buffer saline (PBS), was immobilized on Ni-NTA biosensor tips for 600 s. To remove drift and well-to-well artifacts, we performed double reference subtraction with FortéBio data analysis software. All the twelve compounds stock solutions (10 mM) were prepared in dimethyl sulfoxide (DMSO). The stock solutions were diluted with PBS containing 0.1% […] (PBST) to 100 μM for the initial assay. Typically, for re-assay, the stock solutions were serially diluted (4–6 point serial dilutions) in PBST. Compound testing was performed sequentially taking baseline, association and dissociation steps. Each of these steps took 60 s. The alignment of data was carried out using baseline signal and curves fitted with a one to one best-fit model in FortéBio’s data analysis software.

EA.hy926 cells [2] = assay: LDH, MDA, ROS and SOD in H2O2-treated cells; format: cell-based, human; settings: pretreated 24 h, then 400 μmol·L^−1 H2O2 for 4 h; p < 0.01
Procedure: In the course of oxidative stress, the balance between oxidation and antioxidant activity of cells was disturbed, and the levels of ROS, malondialdehyde (MDA) and lactate dehydrogenase (LDH) increased, while the activity of superoxide dismutase (SOD) enzyme in cells decreased.
Cells were dispensed into 24-well plate wells for 24 h and pretreated with target compound SC2 (5, 0.1, 0.05 µmol·L^−1) or the positive controls (10 µmol·L^−1) for 24 h, followed by exposure to 400 μmol·L^−1 H2O2 for 4 h. The cells were collected and the activities of LDH, MDA, SOD and ROS were determined according to the kits’ instructions.

| Kd (COX2) | COX2 binding in BLI (COX2) | SMILES | cell survival rate compared with control group (EA.hy926 cells [1]; concentrations less than 30 µmol·L^−1) | effect on cells at concentration used in cell-based experiments (EA.hy926 cells [1]; less than 10 µmol·L^−1) | LDH level compared with model group (EA.hy926 cells [2]) | MDA level compared with model group (EA.hy926 cells [2]) | ROS level compared with model group (EA.hy926 cells [2]) | SOD activity compared with model group (EA.hy926 cells [2]) |
| --- | --- | --- | --- | --- | --- | --- | --- | --- |
| 627 µM | interacted with the protein | CC(C)(C)c1ccc(C(=O)c2c(Cl)cc(O)c(O)c2O)cc1 [SC2] | not significantly different | harmless to cells | significantly reduced | significantly reduced | significantly reduced | significantly increased |
| 394 µM | interacted with the protein | CCCCc1ccc(C(=O)c2c(Br)cc(O)c(O)c2O)cc1 [DB2] |  |  |  |  |  |  |
| 766 µM | interacted with the protein | CC(C)Cc1ccc(C(=O)c2c(Br)cc(O)c(O)c2O)cc1 [YB2] |  |  |  |  |  |  |
